Our source for the GI50 and TGI values is PubChem BioAssay (NCI).

Test systems include SK-MEL-28 melanoma; EKVX NSCLC; RXF 393 renal; MCF7 breast; MDA-MB-231 breast; TK-10 renal; M14 melanoma; IGROV1 ovarian.
Holding throughout (test): NCI tumour cell line growth inhibition, 48 h

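Method: 48-hour compound exposure of cells in 96-well plates, five concentrations, linear interpolation of endpoints. GI50 is the concentration that inhibits growth by half. TGI: total growth inhibition.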

In the case of `NC(=O)c1ccc(Oc2nccc(-c3c(-c4ccc(F)cc4)ncn3C3CCNCC3)n2)cc1`, the GI50 in the test on SK-MEL-28 melanoma, in the test with EKVX NSCLC, with RXF 393 renal, in the test with MCF7 breast, in the test with MDA-MB-231 breast and with TK-10 renal was above 25 µM in each case. The GI50 in the test on M14 melanoma and in the test with IGROV1 ovarian was above 25 µM throughout. Also, the TGI with SK-MEL-28 melanoma, in the test with EKVX NSCLC, with RXF 393 renal, in the test with MCF7 breast, in the test on MDA-MB-231 breast and with TK-10 renal was above 25 µM in each case. In addition, the TGI with M14 melanoma and with IGROV1 ovarian was above 25 µM each time.
Turning to `Cc1c(C#N)cccc1[C@@H](C)Nc1nnc(C)c2cnc(N3CCOCC3)cc12`, the GI50 with SK-MEL-28 melanoma is 28.3 µM; in the test on EKVX NSCLC, 18.3 µM; in the test with RXF 393 renal it was 11.3 µM; in the test on MCF7 breast it was 21.4 µM; in the test on MDA-MB-231 breast, 26.9 µM; in the test with TK-10 renal it was 14.2 µM. For the same compound, the figures for the GI50 with M14 melanoma and in the test on IGROV1 ovarian were 27 µM and 24 µM, respectively. In addition, the TGI was above 100 µM with SK-MEL-28 melanoma; above 100 µM with EKVX NSCLC; above 100 µM with RXF 393 renal; 72.4 µM in the test with MCF7 breast; above 100 µM in the test with MDA-MB-231 breast; above 100 µM in the test on TK-10 renal. Further, the TGI is 90.4 µM in the test on M14 melanoma and above 100 µM with IGROV1 ovarian.
For the compound `CNCCCNc1nc2ccccc2c2c(=O)c3cc(OC)ccc3sc12`, the GI50 in the test on SK-MEL-28 melanoma was 1.74 µM; with EKVX NSCLC it was 1.72 µM; in the test with RXF 393 renal, 1.56 µM; in the test with MCF7 breast it was 1.69 µM; in the test with MDA-MB-231 breast it was 1.52 µM; in the test with TK-10 renal, 1.73 µM. In addition, the figures for the GI50 in the test with M14 melanoma and with IGROV1 ovarian were 1.99 µM and 1.55 µM, respectively. Besides, the TGI in the test with SK-MEL-28 melanoma came out at 3.15 µM; in the test on EKVX NSCLC it was 3.7 µM; with RXF 393 renal, 3.07 µM; with MCF7 breast, 3.32 µM; in the test with MDA-MB-231 breast, 2.98 µM; with TK-10 renal it was 3.39 µM. Besides, the TGI in the test on M14 melanoma came out at 3.82 µM; in the test with IGROV1 ovarian it was 3.03 µM.
With `CCCCCCSSC(=S)N(CC)CC`, the GI50 was 25 µM with SK-MEL-28 melanoma; 37.1 µM in the test on EKVX NSCLC; 17.1 µM in the test on RXF 393 renal; 13.9 µM in the test with MCF7 breast; 17.5 µM in the test on MDA-MB-231 breast; 25.8 µM in the test with TK-10 renal. Besides, the values for the GI50 with M14 melanoma and with IGROV1 ovarian were 19.2 µM and 31.5 µM, respectively. In addition, the TGI was 61.4 µM in the test with SK-MEL-28 melanoma; above 100 µM in the test on EKVX NSCLC; 32.9 µM with RXF 393 renal; 30.8 µM with MCF7 breast; 39.2 µM with MDA-MB-231 breast; 56.7 µM with TK-10 renal. The TGI in the test on M14 melanoma was found to be 47.6 µM; in the test with IGROV1 ovarian, 86.7 µM.
As for `CCCCCC(O)C(O)CCC[C@H](O)[C@H]1CC[C@H]([C@H]2CC[C@H]([C@H](O)CCCCCCCCCCCCC3=C[C@H](C)OC3=O)O2)O1` (stereo not given in full), the GI50 in the test with SK-MEL-28 melanoma is 14.7 µM; with EKVX NSCLC, 6.94 µM; in the test on RXF 393 renal, 11.1 µM; in the test on MCF7 breast it was 3.78 µM; in the test with MDA-MB-231 breast, 17.6 µM; in the test on TK-10 renal, 6.83 µM. The GI50 in the test with M14 melanoma was 6.98 µM; in the test on IGROV1 ovarian, 7.46 µM. Besides, the TGI in the test with SK-MEL-28 melanoma is 73 µM; in the test with EKVX NSCLC, 26.4 µM; with RXF 393 renal it was 30.9 µM; with MCF7 breast, 31.4 µM; in the test with MDA-MB-231 breast it was 82.9 µM; in the test on TK-10 renal, 26.2 µM. The TGI turned out to be 29.9 µM with M14 melanoma and 29.4 µM with IGROV1 ovarian.
With `CC1=C(C(=O)Nc2ccccc2)C(c2ccccc2Cl)C(C(=O)Nc2ccccc2)=C(C)N1`, the TGI is 61.9 µM in the test on SK-MEL-28 melanoma; 37.7 µM in the test on EKVX NSCLC; above 100 µM with TK-10 renal; 33.3 µM in the test on M14 melanoma; 65.4 µM in the test on IGROV1 ovarian.
As for `O=C(O)CCNS(=O)(=O)c1ccc2ccccc2c1`, the TGI with SK-MEL-28 melanoma, with EKVX NSCLC, in the test on TK-10 renal, in the test on M14 melanoma and with IGROV1 ovarian was above 100 µM throughout.
Turning to `CN(C)CCCn1c(=O)c2ccccc2c2cnc3[nH]ccc3c21`, the GI50 was 2.23 µM in the test with SK-MEL-28 melanoma; 2.27 µM with EKVX NSCLC; 1.4 µM with RXF 393 renal; 2.74 µM in the test with MCF7 breast; 1.99 µM in the test on MDA-MB-231 breast; 1.83 µM in the test with M14 melanoma. The GI50 with IGROV1 ovarian was 2.28 µM. Moreover, the TGI in the test on SK-MEL-28 melanoma is 5.18 µM; in the test with EKVX NSCLC, 8.43 µM; in the test on RXF 393 renal it was 3.99 µM; in the test with MCF7 breast, 11.3 µM; in the test with MDA-MB-231 breast it was 8.83 µM; with M14 melanoma, 4.44 µM. In addition, the TGI in the test on IGROV1 ovarian was determined as 11.7 µM.
For `Clc1ccc(-c2c3ccc(=[N+]4CCCCC4)cc-3oc3cc(N4CCCCC4)ccc23)cc1`, the GI50 in the test with RXF 393 renal is 0.129 µM; with TK-10 renal it was 0.129 µM; in the test on M14 melanoma it was 0.0696 µM. Besides, the TGI amounted to 0.279 µM with RXF 393 renal, 0.345 µM in the test with TK-10 renal and 0.209 µM in the test with M14 melanoma.
Take `CS(=O)(=O)c1ccc(Nc2nc(N[C@H]3CCCC[C@H]3N)nc3cc[nH]c(=O)c23)cc1`: the GI50 in the test on SK-MEL-28 melanoma was 1.93 µM; in the test on EKVX NSCLC, 1.3 µM; in the test on RXF 393 renal it was 1.03 µM; in the test on MCF7 breast, 0.326 µM; with MDA-MB-231 breast it was 2.81 µM; with TK-10 renal it was 3.19 µM. Moreover, the GI50 in the test with M14 melanoma was 2.16 µM. Besides, the TGI in the test with SK-MEL-28 melanoma was 5.38 µM; with EKVX NSCLC, 5.41 µM; with RXF 393 renal, 3.04 µM; with MCF7 breast it was 13.4 µM; in the test with MDA-MB-231 breast, 16.3 µM; in the test with TK-10 renal, 18.7 µM. Also, the TGI in the test on M14 melanoma turned out to be 8.83 µM.
For the compound `C#CC1=CC(=O)C(OC)=CC1=O`, the TGI in the test on SK-MEL-28 melanoma is above 100 µM; in the test with EKVX NSCLC it was 68.1 µM; in the test with RXF 393 renal it was 30.1 µM; in the test with MCF7 breast it was 35.8 µM; in the test with MDA-MB-231 breast it was 34.8 µM; in the test on TK-10 renal, above 100 µM. For the same compound, in the test on M14 melanoma, the TGI amounted to 39.1 µM.
In the case of `COc1ccc(C(=O)c2cc(C)c(OC)c(C)c2)c(OC)c1NC(C)=O`, the GI50 in the test with SK-MEL-28 melanoma was 0.504 µM; in the test with EKVX NSCLC it was 0.251 µM; in the test with MCF7 breast it was 0.491 µM; in the test with MDA-MB-231 breast it was 0.363 µM; in the test on TK-10 renal, above 100 µM; with M14 melanoma, 0.15 µM. The GI50 in the test with IGROV1 ovarian is 0.529 µM. The TGI in the test with SK-MEL-28 melanoma, in the test with EKVX NSCLC, in the test with MCF7 breast, with MDA-MB-231 breast, in the test with TK-10 renal and in the test with M14 melanoma was above 100 µM in each case. Further, the TGI with IGROV1 ovarian is above 100 µM.
